By EC50 is commonly meant the concentration giving half of the maximal effect. For orientation: Emax means the greatest response seen or fitted, relative to the assay's reference.

*1 amine or outer side, *2 acyl side, *3 side chain or, on linkers, in order; H or OH if unused. Where a SMILES comes first, the peptide text is derived from it. Side-chain parts run from the residue outwards. [ ]: non-standard residue; d: D form. The star is where a group is joined. Isobutyryl(2-(3-CN-5-F-Ph)) = CC(C)(C(=O)*)c1cc(F)cc(C#N)c1; Ala(1H-tetrazol-5-yl) = N[C@@H](Cc1nnn[nH]1)C(=O)O; C20 diacid = O=C(O)CCCCCCCCCCCCCCCCCCC(=O)*; X31 = CC(C)(C(=S)NCCC(=O)*)c1cc(F)cc(C#N)c1; γGlu = O=C(O)[C@H](CCC(=O)[*:2])N[*:1]; β3hD = NC(CC(=O)O)CC(=O)O; AEEA = NCCOCCOCC(=O)O; Aib = CC(C)(N)C(=O)O; βAla = NCCC(=O)O

What all share (type): cell-based
Test [1] concerns the target T1, GIP receptor (Homo sapiens, UniProt P48546).
T1 sequence (P48546 22-466): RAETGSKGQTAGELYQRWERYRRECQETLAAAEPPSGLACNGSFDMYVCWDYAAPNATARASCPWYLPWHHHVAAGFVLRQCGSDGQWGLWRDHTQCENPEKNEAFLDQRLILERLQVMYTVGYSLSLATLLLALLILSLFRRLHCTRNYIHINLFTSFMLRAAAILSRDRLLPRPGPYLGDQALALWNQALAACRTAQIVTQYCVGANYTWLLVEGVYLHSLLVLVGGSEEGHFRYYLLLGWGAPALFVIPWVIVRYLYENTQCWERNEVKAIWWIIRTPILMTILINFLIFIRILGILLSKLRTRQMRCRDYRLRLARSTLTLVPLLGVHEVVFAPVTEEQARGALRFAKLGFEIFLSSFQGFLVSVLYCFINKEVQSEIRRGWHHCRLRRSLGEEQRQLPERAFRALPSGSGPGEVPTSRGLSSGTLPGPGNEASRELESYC
The experiment in a line: HitHunter cAMP assay, GIP receptor. Conditions: for EC50: CHO cells stably expressing GIP receptor, cAMP accumulation, 30 min, read-out: EC50 GIP-1R; for Emax: CHO cells, cAMP, normalized to maximum signal from GIP (high) and DMSO (low), read-out: Emax GIP-1R.

The target in test [2] is T2, GLP-1 receptor (Homo sapiens, UniProt P43220). Description: PathHunter β-arrestin assay, GLP-1 receptor. Further details: host or cells: PathHunter CHO-K1 GLP1R β-Arrestin Cell Line. Conditions: β-arrestin-2 recruitment, PathHunter CHO-K1 GLP1R β-Arrestin Cell Line, 90 min at 37° C.; normalized to GLP-1; read-out: GLP-1R β Arrestin EC50. For orientation: Activated receptors often draw arrestin, which recruitment assays turn into a signal.
Description: β-arrestin-2 recruitment for GLP-1 receptor or GIP receptor was measured using the DiscoverX PathHunter Detection Kit and PathHunter® CHO-K1 GLPIR β-Arrestin Cell Line or PathHunter® CHO-K1 GIPR β-Arrestin Cell Line, respectively). Briefly, cells were grown in Ham's F12 Nutrient Mix with 10% FBS and lifted with Cell dissociation buffer, Enzyme free, PBS based (ThermoFisher). Harvested cells were pelleted and resuspended in Assay Complete Cell Plating Reagent 2 and 5000 cells per well were plated in tissue culture treated 384-well small volume white assay plates. Plates were then incubated at 37° C. and 5% CO2 overnight. The media was then replaced with fresh Assay Complete Cell Plating Reagent 2. Cells were then treated with 10 nl compound in DMSO using an ECHO 550 acoustic dispenser (Labcyte) in a 20-point dose response format in duplicate for 90 min at 37° C. The assay was then completed according to the manufacturer's instructions. Luminescence was measured using a Perkin Elmer Envision plate reader. Raw data was normalized to the maximum signal from GLP-1 or GIP (high) and DMSO (low). Dose response curves were analyzed using GraphPad Prism 9.0.

The target in test [3] is T2, GLP-1 receptor. Description: HitHunter cAMP assay, GLP-1 receptor. The conditions noted are these: for EC50: CHO cells stably expressing human GLP-1 receptor, cAMP accumulation, 30 min, read-out: EC50 GLP-1R; for Emax: CHO cells, cAMP, normalized to maximum signal from GLP-1 (high) and DMSO (low), read-out: Emax GLP-1R. (In general: cAMP levels reflect the balance of adenylyl cyclase and phosphodiesterase activity.)

The target of test [4] is T1, GIP receptor. Description: PathHunter β-arrestin assay, GIP receptor. Further details: host or cells: PathHunter CHO-K1 GIPR β-Arrestin Cell Line. The conditions noted are these: β-arrestin-2 recruitment, PathHunter CHO-K1 GIPR β-Arrestin Cell Line, 90 min at 37° C.; normalized to GIP; read-out: GIPR β Arrestin EC50.

T2 sequence (P43220 24-463): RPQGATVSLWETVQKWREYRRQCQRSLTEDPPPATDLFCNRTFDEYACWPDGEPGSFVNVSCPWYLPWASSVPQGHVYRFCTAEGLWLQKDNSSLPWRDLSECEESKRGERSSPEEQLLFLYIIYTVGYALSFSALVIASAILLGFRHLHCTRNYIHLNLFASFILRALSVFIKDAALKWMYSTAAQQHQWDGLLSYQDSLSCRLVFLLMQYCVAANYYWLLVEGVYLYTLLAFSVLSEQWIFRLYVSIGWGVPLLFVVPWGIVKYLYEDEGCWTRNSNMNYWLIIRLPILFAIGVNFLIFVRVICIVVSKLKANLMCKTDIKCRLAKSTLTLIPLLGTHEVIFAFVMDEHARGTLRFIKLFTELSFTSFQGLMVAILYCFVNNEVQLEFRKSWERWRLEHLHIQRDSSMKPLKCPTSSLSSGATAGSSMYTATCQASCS

For the compound `CC[C@H](C)[C@H](NC(=O)[C@H](CC(C)C)NC(=O)[C@H](Cc1c[nH]c2ccccc12)NC(=O)[C@H](CCC(N)=O)NC(=O)[C@@H](NC(=O)[C@H](Cc1ccccc1)NC(=O)[C@H](C)NC(=O)[C@H](CCCCNC(=O)COCCOCCNC(=O)COCCOCCNC(=O)CC[C@H](NC(=O)CCCCCCCCCCCCCCCCCCC(=O)O)C(=O)O)NC(=O)[C@H](CCC(N)=O)NC(=O)[C@H](C)NC(=O)[C@@H](NC(=O)[C@H](CCCCN)NC(=O)[C@H](CC(=O)O)NC(=O)[C@H](CC(C)C)NC(=O)C(C)(C)NC(=O)[C@@H](NC(=O)[C@H](CO)NC(=O)[C@H](Cc1ccc(O)cc1)NC(=O)[C@H](CC(=O)O)NC(=O)[C@H](CO)NC(=O)[C@@H](NC(=O)[C@H](Cc1ccccc1)NC(=O)[C@@H](NC(=O)CNC(=O)C[C@H](CC(=O)O)NC(=O)CCNC(=O)C(C)(C)c1cc(F)cc(C#N)c1)[C@@H](C)O)[C@@H](C)O)[C@@H](C)CC)[C@@H](C)CC)C(C)C)C(=O)N[C@@H](C)C(=O)NCC(=O)NCC(=O)N1CCC[C@H]1C(=O)N[C@@H](CO)C(=O)N[C@@H](CO)C(=O)NCC(=O)N[C@@H](C)C(=O)N1CCC[C@H]1C(=O)N1CCC[C@H]1C(=O)N1CCC[C@H]1C(=O)N[C@@H](CO)C(N)=O` [Compound 115] ({Isobutyryl(2-(3-CN-5-F-Ph))-βAla}-[β3hD]GTFTSDYSI[Aib]LDKIAQK([AEEA-AEEA-γGlu-C20 diacid])AFVQWLIAGGPSSGAPPPS-NH2), the EC50 was 100 to 1000 nM on GIP receptor [1], greater than 1000 nM at GLP-1 receptor [2], 1 to 10 nM at GLP-1 receptor [3] and greater than 1000 nM on GIP receptor [4]. In addition, the Emax was 111% on GIP receptor [1] and 120% on GLP-1 receptor [3].

Take `CC[C@H](C)[C@H](NC(=O)[C@H](CC(C)C)NC(=O)[C@H](Cc1c[nH]c2ccccc12)NC(=O)[C@H](CCC(N)=O)NC(=O)[C@@H](NC(=O)[C@H](Cc1ccccc1)NC(=O)[C@H](C)NC(=O)[C@H](CCCCNC(=O)COCCOCCNC(=O)COCCOCCNC(=O)CC[C@H](NC(=O)CCCCCCCCCCCCCCCCCCC(=O)O)C(=O)O)NC(=O)[C@H](CCC(N)=O)NC(=O)[C@H](C)NC(=O)[C@@H](NC(=O)[C@H](CCCCN)NC(=O)[C@H](CC(=O)O)NC(=O)[C@H](CC(C)C)NC(=O)C(C)(C)NC(=O)[C@@H](NC(=O)[C@H](CO)NC(=O)[C@H](Cc1ccc(O)cc1)NC(=O)[C@H](CC(=O)O)NC(=O)[C@H](CO)NC(=O)[C@@H](NC(=O)[C@H](Cc1ccccc1)NC(=O)[C@@H](NC(=O)CNC(=O)[C@H](CCC(=O)O)NC(=O)CCNC(=S)C(C)(C)c1cc(F)cc(C#N)c1)[C@@H](C)O)[C@@H](C)O)[C@@H](C)CC)[C@@H](C)CC)C(C)C)C(=O)N[C@@H](C)C(=O)NCC(=O)NCC(=O)N1CCC[C@H]1C(=O)N[C@@H](CO)C(=O)N[C@@H](CO)C(=O)NCC(=O)N[C@@H](C)C(=O)N1CCC[C@H]1C(=O)N1CCC[C@H]1C(=O)N1CCC[C@H]1C(=O)N[C@@H](CO)C(N)=O` [Compound 135] (X31-EGTFTSDYSI[Aib]LDKIAQK([AEEA-AEEA-γGlu-C20 diacid])AFVQWLIAGGPSSGAPPPS-NH2): the EC50 was 10 to 100 nM on GIP receptor [1], greater than 1000 nM at GLP-1 receptor [2], 0.1 to 1 nM on GLP-1 receptor [3] and greater than 1000 nM on GIP receptor [4]. Further, the Emax on GIP receptor [1] was 87%; on GLP-1 receptor [3], 99%.

`CC[C@H](C)[C@H](NC(=O)[C@H](CC(C)C)NC(=O)[C@H](Cc1c[nH]c2ccccc12)NC(=O)[C@H](CCC(N)=O)NC(=O)[C@@H](NC(=O)[C@H](Cc1ccccc1)NC(=O)[C@H](C)NC(=O)[C@H](CCCCNC(=O)COCCOCCNC(=O)COCCOCCNC(=O)CC[C@H](NC(=O)CCCCCCCCCCCCCCCCCCC(=O)O)C(=O)O)NC(=O)[C@H](CCC(N)=O)NC(=O)[C@H](C)NC(=O)[C@@H](NC(=O)[C@H](CCCCN)NC(=O)[C@H](CC(=O)O)NC(=O)[C@H](CC(C)C)NC(=O)C(C)(C)NC(=O)[C@@H](NC(=O)[C@H](CO)NC(=O)[C@H](Cc1ccc(O)cc1)NC(=O)[C@H](CC(=O)O)NC(=O)[C@H](CO)NC(=O)[C@@H](NC(=O)[C@H](Cc1ccccc1)NC(=O)[C@@H](NC(=O)CNC(=O)[C@H](Cc1nn[nH]n1)NC(=O)CCNC(=O)C(C)(C)c1cc(F)cc(C#N)c1)[C@@H](C)O)[C@@H](C)O)[C@@H](C)CC)[C@@H](C)CC)C(C)C)C(=O)N[C@@H](C)C(=O)NCC(=O)NCC(=O)N1CCC[C@H]1C(=O)N[C@@H](CO)C(=O)N[C@@H](CO)C(=O)NCC(=O)N[C@@H](C)C(=O)N1CCC[C@H]1C(=O)N1CCC[C@H]1C(=O)N1CCC[C@H]1C(=O)N[C@@H](CO)C(N)=O` [Compound 136] ({Isobutyryl(2-(3-CN-5-F-Ph))-βAla}-[Ala(1H-tetrazol-5-yl)]GTFTSDYSI[Aib]LDKIAQK([AEEA-AEEA-γGlu-C20 diacid])AFVQWLIAGGPSSGAPPPS-NH2): the EC50 on GIP receptor [1] was 1 to 10 nM; on GLP-1 receptor [2] it was greater than 1000 nM; on GLP-1 receptor [3], less than 0.1 nM; on GIP receptor [4], less than 1000 nM. The Emax is 99% on GIP receptor [1] and 101% on GLP-1 receptor [3].

The values are drawn from US12281149B2, “Modulators of G-protein coupled receptors” (priority 2021, dated 2025).
